Measurements as given in patent US20080201790A1, “Method and product for regulating cell responsiveness to external signals” (priority 1993, published 2008).
Blank lines part the entries; values can stand above or below the substance they belong to.

How the values were obtained:
GST-Ras^V12 = assay: Binding of COS cell-expressed MEKK1 proteins to GST-Ras^V12 agarose; details: COS cell lysates, immunoblot
Source text: COS cells were transiently transfected by the DEAE-dextran protocol as generally described in Example 3. Cos cells were transfected with: (1) p-MEKK1 containing a nucleic acid molecule encoding MEKK1 as described in Lange-Carter et al. (Science 260:315-319, […]); (2) p-MEKKNH2 containing a nucleic acid molecule that encodes a 858 base pair Pvull(682)-Ncol(1541) restriction digest fragment of the amino terminus of MEKK1 ligated into pCMV5; (3) p-MEKKCOOH containing a nucleic acid molecule that encodes a 1435 base pair Ncol(1541)-Sspl(2976) restriction digest fragment that includes the entire kinase domain of MEKK1 ligated into pCMV5; (4) pCMV5 without insert; or (5) p-C4Raf containing a nucleic acid molecule that encodes the amino terminus of Raf-1 ligated into pCMV5. COS cells expressing the various MEKK1 proteins were […] COS cells expressing the various MEKK1 proteins were lysed in EB (1% Triton X-100, 10 mM Tris HCl [pH 7.4], 5 mM EDTA, 50 mM NaCl, 50 mM NaF, 0.1% bovine serum albumin, 0.2 U/ml aprotinin, 1 mM phenylmethylsulfonyl fluoride and 2 mM Na3 VO4). The lysates were separated into two equal parts for separate binding reactions. Half of the lysate was incubated with GST agarose (1.5 μg) while half of the lysate was incubated with GST-Ras^V12 agarose (1.5 μg) (purchased from UBI) for 1 hr at 4° C. […]

98 kD PC12 cell MEKK = assay: MEKK immunoprecipitate kinase assay from PC12 cells with kinase inactive MEK-1; assay type: cell-based; details: serum starved PC12 cells
Protocol: Reactions were stopped by the addition of 2×SDS sample buffer (20 μl). The samples were boiled for 3 minutes and subjected to SDS-PAGE and autoradiography. Raf-B was immunoprecipitated from the same untreated and treated PC12 cell lysates as above with an antiserum to a COOH-terminal peptide of Raf-B (Santa Cruz Biotechnology, Inc.) and assayed similarly. Raf-1 was immunoprecipitated with an antiserum to the 12 COOH-terminal amino acids of Raf-1 (Santa Cruz Biotechnology, Inc.).
Data represent the relative magnitude of the response for each timepoint as quantitated by phosphorimager analysis of radioactive gels from a typical experiment.
Expression of N^17Ras was induced in PC12 clones stably transfected with the N^17Ras gene by the addition of dexamethasone to the starvation media. […] PC12 cell clones stably transfected with the N^17Ras gene are less responsive to EGF-mediated activation of MEKK activity than are wild type PC12 cells. […] MEKK activity in immunoprecipitates or column fractions was dissociable from that of EGF-stimulated c-Raf-1 and Raf-B activities.
To determine whether the growth factor-mediated activation of 98 kD PC12 cell MEKK was inhibited by PKA, forskolin was used to elevate intracellular cAMP and activate PKA. […] Raf-B activity was also assayed from the same cell lysates to test whether its regulation differed from that of MEKK. Raf-B was immunoprecipitated from the same cell lysates as described above and assayed for its ability to phosphorylate MEK-1 as described above.

Raf [1] = assay: Raf activation assay (immunoprecipitated Raf, kinase-inactive MEK-1) in Rat 1a cells; assay type: cell-based
Protocol: (§1) Differential regulation of MEK in Rat 1a and NIH3T3 cells expressing gip2, v-src, v-ras, or v-raf led the present inventor to investigate the protein kinases that are putative regulators of MEK-1. Recently, it was shown that Raf-1 can phosphorylate and activate MEK. […] Cells were serum starved and challenged in the presence or absence of the appropriate growth factors, as described above. […] Cells were lysed by scraping in ice cold RIPA buffer (50 mM Tris, pH 7.2, 150 mM NaCl, 0.1% SDS, 0.5% sodium deoxycholate, 1.0% Triton X 100, 10 mM sodium pyrophosphate, 25 mM sodium glycerophosphate, 2 mM sodium vanadate, 2.1 μg/ml aprotinin) and were microfuged for 10 min to remove nuclei. The supernatants were normalized for protein content and precleared with protein A Sepharose prior to immunoprecipitation with rabbit antiserum to the C terminus of Raf-1 and protein A Sepharose for 2-3 h at 4° C. The beads were washed twice with ice cold RIPA and twice with PAN (10 mM Pipes, pH 7.0, 100 mM NaCl, 21 μg/ml aprotinin). A portion of the immunoprecipitate was diluted with SDS sample buffer and used for immunoblot analysis. […] Wild type recombinant MEK-1 was autophosphorylated in parallel as a marker. Reactions were terminated by the addition of 12.5 μl 5×SDS sample buffer, boiled for 5 minutes and subjected to SDS-PAGE and autoradiography.

Raf [2] = assay: Raf activation assay (immunoprecipitated Raf, kinase-inactive MEK-1) in NIH3T3 cells; assay type: cell-based
Protocol: as §1

MEKK2 = assay: Cellular localization of MEKK2 in Swiss 3T3 cells, antibody staining; assay type: cell-based; details: serum starved Swiss 3T3 cells, 10 minutes
Source text: (§2) Cells were fixed and stained with an antibody specifically recognizing either MEKK1 or MEKK2. Secondary FITC-conjugated anti-rabbit IgG antibody was used for staining.

MEKK1 = assay: Cellular localization of MEKK1 in Swiss 3T3 cells, antibody staining; assay type: cell-based; details: serum starved Swiss 3T3 cells, 10 minutes
Source text: as §2

Raf-B = Raf-B immunoprecipitate kinase assay from PC12 cells with kinase inactive MEK-1; assay type: cell-based; details: EGF 30 ng/ml, serum starved PC12 cells
GST-Rac = GST-Rac (Homo sapiens, UniProt P63000); assay: Binding of MEKK4 to GST fusion protein on glutathione-Sepharose, Rac
Protocol: (§3) GST fusion proteins encoding Cdc42 or Rac loaded with either GTPγs or GDP were incubated with MEKK4 using previously described methods (Russell, M. et al. (1995) J. Biol. Chem. 270:11757-11760). The source of MEKK4 was either from a Cos cell transient transfection or a recombinant MEKK4 protein expressed in E. coli. The recombinant MEKK4 protein was truncated to express residues from 1261-1597 of the full length protein. A GST fusion protein of Ha-Ras was used as a control. The MEKK4 protein was incubated for 1 hr at 4° C. with either GST-Cdc42, GST-Rac or GST-Ras bound to glutathione-Sepharose beads. Each GST fusion protein had GTPγs or GDP bound to the Cdc42, Rac or Ras moiety of the fusion protein. Following the incubation the beads were washed extensively and the bound proteins removed in SDS-Laemmli buffer and resolved by SDS-PAGE using 10% acrylamide gels. The proteins were transferred to nitrocellulose and immunoblotted using a MEKK4 specific antibody recognizing the extreme COOH-terminus of MEKK4. […] The GDP bound forms of GST-Cdc42 and GST-Rac bound less than 10% of the MEKK4 bound in the presence of GTPγs.

GST-Cdc42 = GST-Cdc42 (Homo sapiens, UniProt P60953); assay: Binding of MEKK4 to GST fusion protein on glutathione-Sepharose, Cdc42
Protocol: as §3

GST-Ras = GST-Ras (Homo sapiens, UniProt P01112); assay: Binding of MEKK4 to GST fusion protein on glutathione-Sepharose, Ras; details: GTPγS or GDP bound form
Protocol: as §3

[3] = tested on: Swiss 3T3 cells and REF52 cells; assay: Beauvericin-induced apoptosis, anti-tubulin and propidium iodide staining; assay type: cell-based; details: 50 μM, 6 hours at 37° C.
Protocol: A first group of transfected Swiss 3T3 cells and REF52 cells were treated with 50 μM beauvericin for 6 hours at 37° C. Beauvericin is a compound known to induce apoptosis in mammalian cells. A second group of cells were treated with a control buffer lacking beauvericin. The treated cells were then fixed in paraformaldehyde and permeabilized with saponin using protocols standard in the art. The permeabilized cells were then labelled by incubating the cells with a fluorescein-labelled anti-tubulin antibody (1:500; obtained from GIBCO, Gaithersburg, Md.) to detect cytoplasmic shrinkage or 10 μM propidium iodide (obtained from Sigma, St. Louis, Mo.) to stain DNA to detect nuclear condensation. The labelled cells were then viewed by differential fluorescent imaging using a Nikon Diaphot fluorescent microscope.

MEK = MEK activity in cell lysates from thrombin stimulated Rat 1a cells; assay type: cell-based
Source text: This Example Describes the Determination of Whether a Similar or Distinct MEK Activity is Involved in Activation of MAPK Though Gi Protein Coupled Receptors by Measuring MEK Activity in Cell Lysates from Thrombin Stimulated Rat 1a Cells

MAPK = assay: Thrombin stimulation of MAPK; assay type: cell-based

GST-Cdc42, sequence (P60953 whole entry, the tested form may be a part): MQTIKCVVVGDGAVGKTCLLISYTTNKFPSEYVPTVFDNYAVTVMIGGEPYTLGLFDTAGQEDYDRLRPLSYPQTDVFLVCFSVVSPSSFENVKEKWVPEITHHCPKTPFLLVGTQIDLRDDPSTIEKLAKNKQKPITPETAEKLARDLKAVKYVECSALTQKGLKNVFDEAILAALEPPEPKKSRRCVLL
GST-Ras, sequence (P01112 whole entry, the tested form may be a part): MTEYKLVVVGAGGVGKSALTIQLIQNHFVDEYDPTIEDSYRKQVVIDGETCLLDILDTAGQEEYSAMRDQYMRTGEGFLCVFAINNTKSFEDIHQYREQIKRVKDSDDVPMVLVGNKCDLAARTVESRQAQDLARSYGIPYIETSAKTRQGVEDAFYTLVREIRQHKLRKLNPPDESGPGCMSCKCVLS

Substance: C4Raf: amino terminus of Raf-1 encoded by p-C4Raf [reference compound]
binding to GST-Ras^V12 (in words) (GST-Ras^V12): bound to GST-Ras^V12(GTPγS) agarose

Substance: EGF: human EGF, epidermal growth factor
persistence of MEKK activation (98 kD PC12 cell MEKK; EGF 30 ng/ml): at least 30 minutes | MEKK activity after stimulation (in words) (98 kD PC12 cell MEKK; 5 minutes): increased MEKK activity | Raf catalyzed phosphorylation of MEK-1 (Raf [1]; Gip2 expressing Rat 1a cells): 1.8 fold | Raf phosphorylation of recombinant MEK-1 over basal (Raf [1]; Rat 1a cells): approximately 2.6 fold | Raf catalyzed phosphorylation of MEK-1 (Raf [1]; v-Src expressing Rat 1a cells): 1.4 fold | activation of Raf (Raf [2]): approximately 2.7 fold | cellular localization of MEKK2 (MEKK2): did not effect the cellular localization of MEKK2 | cellular localization of MEKK1 (MEKK1): induced a dramatic translocation of MEKK1 to the plasma membrane | time of peak Raf-B activity (Raf-B): 3 to 5 min

binding to Rac in the GTPγS form (GST-Rac; 1 hr at 4° C., immunoblot): specifically bound | MEKK4 bound by GDP form relative to GTPγs form (GST-Rac; GST-Rac): less than 10% | binding to Cdc42 in the GTPγS form (GST-Cdc42; 1 hr at 4° C., immunoblot): specifically bound | MEKK4 bound by GDP form relative to GTPγs form (GST-Cdc42; GST-Cdc42): less than 10% | binding to Ras (GST-Ras): did not bind significantly
Substance: MEKK4: MEK kinase 4 protein, SEQ ID No. 12 / 14

Substance: beauvericin
morphology characteristic of apoptosis [3]: cytoplasmic shrinkage (monitored by the anti-tubulin antibodies) and nuclear condensation

Substance: thrombin
magnitude of MEK activity relative to EGF stimulation (MEK): two to three-fold less | stimulation of MEK over basal (MEK): two to three-fold over basal | activation of Raf (in words) (Raf [1]; Rat 1a cells): did not measurably activate Raf | activation of Raf (in words) (Raf [2]): does not | time of maximal stimulation of MAPK (MAPK): 3 min
